Source: patent US9233946B2, “Sulfonamide compounds” (KANCERA AB, priority 2010, dated 2016)
pIC50: −log10 of the molar value.

Molecular target: PFKFB4 (Homo sapiens (Human), UniProt Q16877)
Test: PFKFB4 kinase activity, Method B (ADP-Glo Kinase Assay)
Type: biochemical
Text: The PFKFB3 (placenta form) and PFKFB4 were produced and purified to homogeneity from E. coli at Biovitrum and at Sprint Bioscience. All other reagents were purchased from commercial sources. Two independent methods have been used for determination of the kinase activity of PFKFB3 (Method A and Method B). Method B has been used for determination of the kinase activity of PFKFB4.
Method B: The kinase activity of the bi-functional enzyme is readily quantified based on the production of ADP and F-2,6-P2 from ATP and F6P. The ADP is detected with a kit, ADP-Glo™ Kinase Assay^(a-e), from Promega. The assay is a luminescent ADP detection assay that measures kinase activity by quantifying the amount of ADP produced during the kinase reaction. The assay is performed in two steps; first, after the kinase reaction, an equal volume of ADP-Glo™ Reagent is added to terminate the kinase reaction and deplete the remaining ATP. Second, the Kinase Detection Reagent is added to simultaneously convert ADP to ATP and allow the newly synthesized ATP to be measured using a luciferase/luciferine reaction. The light generated is measured using a luminescence counter (1450 MicroBeta TriLux).
The assay was performed in white 384-well microtiter plates (OptiPlate, 6007299, PerkinElmer) by consecutive additions of 0.1 μL of a test compound solution (serial diluted in DMSO from compound DMSO stock solution and dispensed by acoustic dispensing from UV-star 384-well plate 7360153, VWR), 5 μL of enzyme solution and 5 μL of a substrate (fructose-6-phosphate (F6P) and adenosine-5′-triphosphate (ATP)) containing solution. […] Four reference dose response curves, one of them being the QC compound, were included in row O1-2, P1-2, and serial diluted as the test compounds. The final concentrations of all reagents in a total assay volume of 10.1 μL per well were: • 50 mM Tris-HCl at pH 8.0 • 10 mM MgCl2 • 5 mM Na2HPO4 at pH 8.0 • 81.48 nM PFKFB3 or 145 nM PFKFB4 • 8 μM ATP • 100 μM F6P (acid treated and then neutralized to remove any contaminating F-2,6-P2; see Van Schaftingen, 1984) • 0.005% Tween-20 • 1 mM dithiothreitol (DTT) • A test compound at various concentrations or controls (final DMSO concentration 0.99%)
Enzyme, compounds and controls were pre-incubated at room temperature for 15 min before the addition of substrate solution. The enzymatic reaction was allowed to proceed for 20 min (PFKFB3) or 40 min (PFKFB4) at room temperature. The reaction was terminated by the addition of 10 μL of ADP-Glo™ Reagent to all wells and the plate was incubated for 40 min at room temperature. After addition of 20 μL Kinase Detection Reagent to all wells the plate was incubated for 30 min at room temperature, followed by measurement in 1450 MicroBeta TriLux. All plates were centrifuged after each addition (room temperature, short spin, 500 RPM, Megafuge 1.0 Heraeus Instruments).
The inhibitory potency or IC50 values of test compounds on the kinase activity of PFKFB3 or PFKFB4 were calculated using a four-parameter model (model 205) in XLfit (IDBS ActivityBase XE Runner).

PFKFB4, sequence (Q16877 whole entry): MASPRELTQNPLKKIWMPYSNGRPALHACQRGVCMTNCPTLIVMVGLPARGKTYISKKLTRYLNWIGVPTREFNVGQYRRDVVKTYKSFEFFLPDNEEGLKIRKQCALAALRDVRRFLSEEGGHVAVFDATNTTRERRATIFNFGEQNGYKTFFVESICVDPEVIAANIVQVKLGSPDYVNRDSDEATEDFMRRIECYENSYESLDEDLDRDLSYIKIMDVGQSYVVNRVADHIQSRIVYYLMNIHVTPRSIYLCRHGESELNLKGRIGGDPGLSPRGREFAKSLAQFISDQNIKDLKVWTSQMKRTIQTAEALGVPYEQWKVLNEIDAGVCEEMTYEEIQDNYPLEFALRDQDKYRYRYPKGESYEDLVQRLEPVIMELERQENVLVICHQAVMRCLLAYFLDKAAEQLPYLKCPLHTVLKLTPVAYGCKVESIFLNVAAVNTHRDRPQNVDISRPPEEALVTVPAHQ

pIC50	SMILES
7.22	Cc1c(S(=O)(=O)Nc2cccc(C(=O)O)c2)sc2ccc(C(C)C)cc12 [Example 5, 3-{[(5-Isopropyl-3-methyl-1-benzothien-2-yl)sulfonyl]amino}benzoic acid]
6.89	Cc1c(S(=O)(=O)Nc2cccc(C(=O)O)c2)sc2ccc(Cl)cc12 [Example 38, 3-{[(5-Chloro-3-methyl-1-benzothien-2-yl)sulfonyl]amino}benzoic acid]
